The structures appear in SMILES notation. Values after ≈ are worked out from the molar mass of the structure shown.

As a reminder, the MIC is the lowest concentration that inhibits growth of the organism. A high value points to a less susceptible organism. A word on the MIC80: it is an inhibitory concentration at the 80% level, which refers to growth in some studies and to a panel of isolates in others. Low values mean higher susceptibility, high ones lower susceptibility.

The first test has as its system Staphylococcus aureus. The experiment in a line: Antibacterial activity against Staphylococcus aureus ATCC 25923 after 24 hrs by two fold serial dilution method. Type of test: functional. To be noted: ATCC 25923, 24 h.
For the compound `CCCCCCCCCCn1c(Cn2cnc3c(N4CCOCC4)ncnc32)nc2ccccc21`, 256 µg/mL (≈ 538 µM) was the least that counted as inhibitory (MIC).
Still for that read-out and setting: the figure for `FC(F)(F)c1nc2ccccc2n1CCn1cnc2c(N3CCOCC3)ncnc21` is 64 µg/mL (≈ 153 µM).
On the same count and under the same terms, the figure for `Clc1ccc(Cn2c(Cn3cnc4c(N5CCOCC5)ncnc43)nc3ccccc32)cc1` is 128 µg/mL (≈ 278 µM); for `CCCCCCn1c(Cn2cnc3c(N4CCCCC4)ncnc32)nc2ccccc21` it is 64 µg/mL (≈ 153 µM).

For a further test, the system named is Pseudomonas aeruginosa. Kind of test: Antibacterial activity against Pseudomonas aeruginosa after 24 hrs by two fold serial dilution method. It is filed as functional.
Details: not given
The compound `CCCCCCCCCCn1c(Cn2cnc3c(N4CCOCC4)ncnc32)nc2ccccc21` showed an MIC of 256 µg/mL (≈ 538 µM).
For `FC(F)(F)c1nc2ccccc2n1CCn1cnc2c(N3CCOCC3)ncnc21`, 128 µg/mL (≈ 307 µM) was the least that counted as inhibitory (MIC).
With `Clc1ccc(Cn2c(Cn3cnc4c(N5CCOCC5)ncnc43)nc3ccccc32)cc1`, the MIC amounted to 512 µg/mL (≈ 1110 µM).
Still for that read-out and setting: next, `CCCCCCn1c(Cn2cnc3c(N4CCCCC4)ncnc32)nc2ccccc21`: 128 µg/mL (≈ 307 µM).

For a further test, the system named is Staphylococcus aureus. Kind of test: Antibacterial activity against methicillin-resistant Staphylococcus aureus N315 after 24 hrs by two fold serial dilution method. As to conditions: N315, 24 h. Type of test: functional.
Compound `CCCCCCCCCCn1c(Cn2cnc3c(N4CCOCC4)ncnc32)nc2ccccc21` yielded an MIC of 256 µg/mL (≈ 538 µM).
The compound `FC(F)(F)c1nc2ccccc2n1CCn1cnc2c(N3CCOCC3)ncnc21` showed an MIC of 256 µg/mL (≈ 613 µM).
`Clc1ccc(Cn2c(Cn3cnc4c(N5CCOCC5)ncnc43)nc3ccccc32)cc1` displayed an MIC of 512 µg/mL (≈ 1110 µM).
On the same count and under the same terms, next, `CCCCCCn1c(Cn2cnc3c(N4CCCCC4)ncnc32)nc2ccccc21`: 64 µg/mL (≈ 153 µM).

The subject of a further test is Candida albicans. The experiment in a line: Antifungal activity against Candida albicans ATCC 90023 after 24 hrs by two fold serial dilution method. Type of test: functional. As to conditions: ATCC 90023, 24 h.
For the compound `CCCCCCCCCCn1c(Cn2cnc3c(N4CCOCC4)ncnc32)nc2ccccc21`, the MIC80 was 64 µg/mL (≈ 135 µM).
The same measure, in the same setting: next, `FC(F)(F)c1nc2ccccc2n1CCn1cnc2c(N3CCOCC3)ncnc21`: 256 µg/mL (≈ 613 µM); `Clc1ccc(Cn2c(Cn3cnc4c(N5CCOCC5)ncnc43)nc3ccccc32)cc1`: 128 µg/mL (≈ 278 µM).
With `CCCCCCn1c(Cn2cnc3c(N4CCCCC4)ncnc32)nc2ccccc21`, the MIC80 was determined as 32 µg/mL (≈ 76.6 µM).

The test system of the next test is Candida parapsilosis. Kind of test: Antifungal activity against Candida parapsilosis ATCC 22019 after 24 hrs by two fold serial dilution method. It is filed as functional. To be noted: ATCC 22019, 24 h.
Turning to `CCCCCCCCCCn1c(Cn2cnc3c(N4CCOCC4)ncnc32)nc2ccccc21`, the MIC80 is 256 µg/mL (≈ 538 µM).
On the same count and under the same terms, next, `FC(F)(F)c1nc2ccccc2n1CCn1cnc2c(N3CCOCC3)ncnc21`: 128 µg/mL (≈ 307 µM); `Clc1ccc(Cn2c(Cn3cnc4c(N5CCOCC5)ncnc43)nc3ccccc32)cc1`: 512 µg/mL (≈ 1110 µM).
The same measure, in the same setting: next, `CCCCCCn1c(Cn2cnc3c(N4CCCCC4)ncnc32)nc2ccccc21`: 64 µg/mL (≈ 153 µM).

The next test concerns Aspergillus fumigatus. The experiment in a line: Antifungal activity against Aspergillus fumigatus after 24 hrs by two fold serial dilution method. It is filed as functional.
Details: not given
On to `CCCCCCCCCCn1c(Cn2cnc3c(N4CCOCC4)ncnc32)nc2ccccc21`, for which the MIC80 was found to be 256 µg/mL (≈ 538 µM).
On the same count and under the same terms, next, `FC(F)(F)c1nc2ccccc2n1CCn1cnc2c(N3CCOCC3)ncnc21`: 256 µg/mL (≈ 613 µM).
Consider `Clc1ccc(Cn2c(Cn3cnc4c(N5CCOCC5)ncnc43)nc3ccccc32)cc1`, for which the MIC80 was found to be 256 µg/mL (≈ 557 µM).
In turn, `CCCCCCn1c(Cn2cnc3c(N4CCCCC4)ncnc32)nc2ccccc21` gave an MIC80 of 128 µg/mL (≈ 307 µM).

For a further test, the system named is Escherichia coli. The experiment in a line: Antibacterial activity against Escherichia coli ATCC 25922 after 24 hrs by two fold serial dilution method. It is filed as functional. To be noted: ATCC 25922, 24 h.
`CCCCCCCCCCn1c(Cn2cnc3c(N4CCOCC4)ncnc32)nc2ccccc21` displayed an MIC of 128 µg/mL (≈ 269 µM).
The same measure, in the same setting: the figure for `FC(F)(F)c1nc2ccccc2n1CCn1cnc2c(N3CCOCC3)ncnc21` is 128 µg/mL (≈ 307 µM); for `Clc1ccc(Cn2c(Cn3cnc4c(N5CCOCC5)ncnc43)nc3ccccc32)cc1` it is 256 µg/mL (≈ 557 µM); for `CCCCCCn1c(Cn2cnc3c(N4CCCCC4)ncnc32)nc2ccccc21` it is 16 µg/mL (≈ 38.3 µM).

A further test concerns Escherichia coli. The experiment in a line: Antibacterial activity against Escherichia coli after 24 hrs by two fold serial dilution method. Type of test: functional.
Details: not given
On to `CCCCCCCCCCn1c(Cn2cnc3c(N4CCOCC4)ncnc32)nc2ccccc21`, for which inhibition of growth (MIC) required 32 µg/mL (≈ 67.3 µM).
Compound `FC(F)(F)c1nc2ccccc2n1CCn1cnc2c(N3CCOCC3)ncnc21` returned an MIC of 32 µg/mL (≈ 76.7 µM).
On the same count and under the same terms, next, `Clc1ccc(Cn2c(Cn3cnc4c(N5CCOCC5)ncnc43)nc3ccccc32)cc1`: 256 µg/mL (≈ 557 µM); `CCCCCCn1c(Cn2cnc3c(N4CCCCC4)ncnc32)nc2ccccc21`: 256 µg/mL (≈ 613 µM).

The test system of another test is Staphylococcus aureus. Kind of test: Antibacterial activity against Staphylococcus aureus after 24 hrs by two fold serial dilution method.
Details: not given
It is filed as functional.
For `CCCCCCCCCCn1c(Cn2cnc3c(N4CCOCC4)ncnc32)nc2ccccc21`, the MIC turned out to be 256 µg/mL (≈ 538 µM).
`FC(F)(F)c1nc2ccccc2n1CCn1cnc2c(N3CCOCC3)ncnc21` had an MIC of 32 µg/mL (≈ 76.7 µM).
Compound `Clc1ccc(Cn2c(Cn3cnc4c(N5CCOCC5)ncnc43)nc3ccccc32)cc1` had an MIC of 512 µg/mL (≈ 1110 µM).
Same read-out and setting: next, `CCCCCCn1c(Cn2cnc3c(N4CCCCC4)ncnc32)nc2ccccc21`: 16 µg/mL (≈ 38.3 µM).

The next test concerns Pseudomonas aeruginosa. Kind of test: Antibacterial activity against Pseudomonas aeruginosa ATCC 27853 after 24 hrs by two fold serial dilution method. Type of test: functional. To be noted: ATCC 27853, 24 h.
`CCCCCCCCCCn1c(Cn2cnc3c(N4CCOCC4)ncnc32)nc2ccccc21`: the MIC was 16 µg/mL (≈ 33.6 µM).
As for `FC(F)(F)c1nc2ccccc2n1CCn1cnc2c(N3CCOCC3)ncnc21`, the MIC stood at 64 µg/mL (≈ 153 µM).
The same measure, in the same setting: next, `Clc1ccc(Cn2c(Cn3cnc4c(N5CCOCC5)ncnc43)nc3ccccc32)cc1`: 128 µg/mL (≈ 278 µM); `CCCCCCn1c(Cn2cnc3c(N4CCCCC4)ncnc32)nc2ccccc21`: 128 µg/mL (≈ 307 µM).

Another test has as its system Staphylococcus aureus. The experiment in a line: Antibacterial activity against Staphylococcus aureus ATCC 29213 after 24 hrs by two fold serial dilution method. It is filed as functional. As to conditions: ATCC 29213, 24 h.
In turn, `CCCCCCCCCCn1c(Cn2cnc3c(N4CCOCC4)ncnc32)nc2ccccc21` had an MIC of 256 µg/mL (≈ 538 µM).
The compound `FC(F)(F)c1nc2ccccc2n1CCn1cnc2c(N3CCOCC3)ncnc21` yielded an MIC of 128 µg/mL (≈ 307 µM).
Regarding `Clc1ccc(Cn2c(Cn3cnc4c(N5CCOCC5)ncnc43)nc3ccccc32)cc1`, 256 µg/mL (≈ 557 µM) was the least that counted as inhibitory (MIC).
As for `CCCCCCn1c(Cn2cnc3c(N4CCCCC4)ncnc32)nc2ccccc21`, the MIC came to 512 µg/mL (≈ 1230 µM).

In the next test the test system is Klebsiella pneumoniae. Kind of test: Antibacterial activity against Klebsiella pneumoniae after 24 hrs by two fold serial dilution method.
Details: not given
Type of test: functional.
Regarding `CCCCCCCCCCn1c(Cn2cnc3c(N4CCOCC4)ncnc32)nc2ccccc21`, 128 µg/mL (≈ 269 µM) was the least that counted as inhibitory (MIC).
Regarding `FC(F)(F)c1nc2ccccc2n1CCn1cnc2c(N3CCOCC3)ncnc21`, the MIC was 64 µg/mL (≈ 153 µM).
The compound `Clc1ccc(Cn2c(Cn3cnc4c(N5CCOCC5)ncnc43)nc3ccccc32)cc1` yielded a minimum inhibitory concentration (MIC) of 256 µg/mL (≈ 557 µM).
As to `CCCCCCn1c(Cn2cnc3c(N4CCCCC4)ncnc32)nc2ccccc21`, the MIC came out at 64 µg/mL (≈ 153 µM).

In another test the test system is Enterococcus faecalis. Kind of test: Antibacterial activity against Enterococcus faecalis after 24 hrs by two fold serial dilution method.
Details: not given
Type of test: functional.
Compound `CCCCCCCCCCn1c(Cn2cnc3c(N4CCOCC4)ncnc32)nc2ccccc21` gave a minimal inhibitory concentration (MIC) of 128 µg/mL (≈ 269 µM).
The same measure, in the same setting: the figure for `FC(F)(F)c1nc2ccccc2n1CCn1cnc2c(N3CCOCC3)ncnc21` is 64 µg/mL (≈ 153 µM); for `Clc1ccc(Cn2c(Cn3cnc4c(N5CCOCC5)ncnc43)nc3ccccc32)cc1` it is 256 µg/mL (≈ 557 µM); for `CCCCCCn1c(Cn2cnc3c(N4CCCCC4)ncnc32)nc2ccccc21` it is 128 µg/mL (≈ 307 µM).

A further test has as its system Candida tropicalis. The experiment in a line: Antifungal activity against Candida tropicalis after 24 hrs by two fold serial dilution method. It is filed as functional.
Details: not given
The compound `CCCCCCCCCCn1c(Cn2cnc3c(N4CCOCC4)ncnc32)nc2ccccc21` came in with an MIC80 of 256 µg/mL (≈ 538 µM).
Compound `FC(F)(F)c1nc2ccccc2n1CCn1cnc2c(N3CCOCC3)ncnc21` gave an MIC80 of 256 µg/mL (≈ 613 µM).
As for `Clc1ccc(Cn2c(Cn3cnc4c(N5CCOCC5)ncnc43)nc3ccccc32)cc1`, the MIC80 was determined as 64 µg/mL (≈ 139 µM).
In the case of `CCCCCCn1c(Cn2cnc3c(N4CCCCC4)ncnc32)nc2ccccc21`, the MIC80 came to 64 µg/mL (≈ 153 µM).

For another test, the system named is Candida albicans. Kind of test: Antifungal activity against Candida albicans after 24 hrs by two fold serial dilution method. It is filed as functional.
Details: not given
With `CCCCCCCCCCn1c(Cn2cnc3c(N4CCOCC4)ncnc32)nc2ccccc21`, the MIC80 is 128 µg/mL (≈ 269 µM).
Same read-out and setting: next, `FC(F)(F)c1nc2ccccc2n1CCn1cnc2c(N3CCOCC3)ncnc21`: 256 µg/mL (≈ 613 µM).
`Clc1ccc(Cn2c(Cn3cnc4c(N5CCOCC5)ncnc43)nc3ccccc32)cc1` came in with an MIC80 of 256 µg/mL (≈ 557 µM).
The same measure, in the same setting: next, `CCCCCCn1c(Cn2cnc3c(N4CCCCC4)ncnc32)nc2ccccc21`: 64 µg/mL (≈ 153 µM).

In another test the test system is Acinetobacter baumannii. The experiment in a line: Antibacterial activity against Acinetobacter baumannii after 24 hrs by two fold serial dilution method. It is filed as functional.
Details: not given
Consider `CCCCCCCCCCn1c(Cn2cnc3c(N4CCOCC4)ncnc32)nc2ccccc21`, for which the MIC is 256 µg/mL (≈ 538 µM).
On the same count and under the same terms, the figure for `FC(F)(F)c1nc2ccccc2n1CCn1cnc2c(N3CCOCC3)ncnc21` is 64 µg/mL (≈ 153 µM).
Same read-out and setting: the figure for `Clc1ccc(Cn2c(Cn3cnc4c(N5CCOCC5)ncnc43)nc3ccccc32)cc1` is 512 µg/mL (≈ 1110 µM); for `CCCCCCn1c(Cn2cnc3c(N4CCCCC4)ncnc32)nc2ccccc21` it is 64 µg/mL (≈ 153 µM).
